Assay results: publication PMC4786873, “Spacer-free BODIPY fluorogens in antimicrobial peptides for direct imaging of fungal infection in human tissue” (Nature Communications, 2016)
Entries after “also recorded” stand apart in the source; their conditions may differ. Where two headings read alike, the source gives them in different places. Starred links: 1 amine or outer side, 2 acyl side, 3 side chain; linkers in the order of their positions; H or OH if unused. Non-standard residues stand in square brackets, D forms with d. Residues, ends and D or L forms follow the SMILES beside them. No end group written: not given here. X1 = CC1=CC(C)=[N+]2C1=C(c1cccc(-c3[nH]c4ccccc4c3C[C@H](N[*:1])C(=O)[*:2])c1)c1c(C)cc(C)n1[B-]2(F)F

How the values were obtained:
[1] = tested on: Aspergillus fumigatus (strain CEA10); format: cell-based; conditions: for activity / affinity in A. fumigatus, in words: values only in Supplementary Fig. 8 (picture not shown), 9 compared with linear PAF26 (4)
Description: The A. fumigatus (strain CEA10, source: FGSC A1163) was grown on Vogel's medium at 37 °C for 5 days before the spores (conidia) were harvested. Peptides 4–8 were incubated at different concentrations with A. fumigatus conidia to reach a final volume of 100 μl per well. The final conidia concentration was 5 × 10^5 cells ml^−1 in 10% Vogel's medium. After 24 h incubation at 37 °C in 96 well-plates, fungal growth was determined by measuring OD610nm in a spectrophotometer. IC50 values were determined using four parameter logistic regression. Data is represented as means±s.e.m from at least three independent experiments with n=3.
Antimicrobial and ha emolysis assays.
Supplementary Figure 4. Determination of IC50 values of BODIPY-labelled peptides 5- 8 in A. fumigatus. Cell viability plots and non- linear regressions for peptides 5 (A), 6 (B), 7 (C) and 8 (D).
Peptides were incubated at different concentrations with A. fumigatus conidia to r each a final volum e of 100 μ L per well. T he final conidia concentration was 5 × 10^5 cells/m L in 10% Vogel’s m edium . After 24 h incubation at 37 °C in 96 well-plates, fungal growth was determ ined by m easuring the optical densit y at 610 nm . The IC50 values were determ ined using four param eter logistic regression. Data represented as m eans ± s.e.m (n=3).
(§1) (1 picture or pasted object on this page, not shown here)

[2] = tested on: Escherichia coli (ATCC 25922); assay: In vitro antimicrobial activity (bacterial cell viability, OD600); format: cell-based; conditions: 16 h incubation with peptide at its respective IC50 concentration (A. fumigatus), OD600 nm, n=3
Description: (§2) P. aeruginosa (ATCC 47085), K. pneumoniae (ATCC BAA1706) and E. coli (ATCC 25922) were grown on Lysogeny Broth (LB) agar plates and stored at 4 °C. For assays, a single colony of bacteria was taken into 10 mL liquid broth and incubated at 37 °C for 16 h. Cultures were centrifuged at 4,000 r.p.m. for 5 min and the pellet was re-suspended in 1 ml of fresh PBS and washed three times. Cultures were reconstituted to 1.0 OD595 nm, then diluted 1:1,000 and incubated with compounds 4–8 at the indicated concentrations (that is, concentrations matching the IC50 values in A. fumigatus for all compounds, except for compounds 3 and 5a where a top concentration of 20 μM was used). Cell viability was monitored over 16 h by measuring OD600 nm in a spectrophotometer. Data is represented as % of cell viability as means from at least two independent experiments with n=3.

[3] = tested on: Pseudomonas aeruginosa (ATCC 47085); assay: as above; format: cell-based; conditions: 16 h incubation with peptide at its respective IC50 concentration (A. fumigatus), OD600 nm, n=3
Description: as §2

[4] = tested on: Klebsiella pneumoniae (ATCC BAA1706); assay: as above; format: cell-based; conditions: 16 h incubation with peptide at its respective IC50 concentration (A. fumigatus), OD600 nm, n=3
Description: as §2

[5] = Chemical stability in human bronchoalveolar lavages; format: in vitro ADME; conditions: human bronchoalveolar lavage from patients with acute respiratory distress syndrome, 37 °C; for remaining at 1 h, 20 μM / remaining at 3 h, 20 μM / remaining at 24 h, 20 μM: HPLC-UV (C18); for remaining at 1 h, 20 μM: read-out: chemical stability in human bronchoalveolar lavage, percentage at 1 h (measure not given); for remaining at 3 h, 20 μM: read-out: chemical stability in human bronchoalveolar lavage, percentage at 3 h (measure not given); for remaining at 24 h, 20 μM: read-out: chemical stability in human bronchoalveolar lavage, percentage at 24 h (measure not given)
Description: Peptides 5 and 8 (20 μM) were dissolved in human bronchoalveolar lavage samples (total volume: 100 μl) and incubated at 37 °C for the indicated times. Samples were injected into an high-performance liquid chromatography Agilent 1100 separations module connected to a UV detector with a Discovery C18 column (5 μm, 4.6 × 50 mm). Matrix-assisted laser desorption/ionization data was recorded on a Bruker Ultraflex mass spectrometer using sinapinic acid as the matrix.
Supplementary Figure 9 . Stability of cyclic (8) and linear (5) mono-BODIPY labelled peptid es in human bronchoalveolar lavage samples from p atients w ith acute respiratory distress synd rome.
Pept ides were incubat ed in hum an bronchoalveolar lavage sam ples at 37 °C and anal ysed b y H PLC at the tim e points indicated. Arrows point at the peak s corresponding to the intact linear peptide.
as §1

[6] = tested on: human lung A549 epithelial cells; assay: MTT cell viability assay; format: cell-based; conditions: MTT, 0, 1.25, 2.5, 5 and 10 μM, 4 h at 37 °C, absorbance 570 nm, means ± s.d., n=4
Description: Cell viability was determ ined with a TACS® MTT Cell Proliferation assa y (Trevigen) according to the m anufacturer’s instructions. Briefly, hum an lung A549 epithelial cells were plated on 96-well plates the day before the experim ent, reaching 90- 95% confluence on the day of the experim ent. T he peptide 8 was added to the cells at different concentrations (0, 1.25, 2.5, 5 and 10 µM) and incubated at 37 °C for 4 h. After 4 h, cells were washed, treated according to the m anufacturer’s instructions and their absorbance values (570 nm) were m easured in a Syner gy HT spectrophotom eter (Biotek ). Cell viabilit y data was norm alised to the proliferation of cells without addition of the peptide 8.
Supplementary Figure 17. Cell proliferation assays. Viabilit y of hum an lung A549 epithelial cells after incubation with different concentrations of the peptide 8 . D ata r epresented as m eans ± s.d. (n=4).
as §1

human RBCs = assay: Determination of haemolytic activity; format: cell-based; conditions: red cells of human, 1 h
Description: Erythrocytes were isolated from freshly drawn, anticoagulated human blood and diluted in PBS (1:5). An amount of 50 μl of erythrocyte suspension was added to 50 μl of compounds 4–8 at the indicated concentrations (that is, concentrations matching the IC50 values in A. fumigatus for all compounds, except for compounds 3 and 5a where a top concentration of 20 μM was used). 0.2% Triton X-100 was used as positive control and PBS as negative control. The plate was incubated at 37 °C for 1 h, each well was diluted with 150 μl of PBS and the plate was centrifuged at 1,200g for 15 min. A total of 100 μl of the supernatant from each well was transferred to a fresh plate, and the absorbance at 350 nm was measured in a microplate reader. Data is represented as % of cell viability as means from three independent experiments with n=3.
Supplementary Figure 6. Haemolytic activity of peptides 4-8 in human red blood cells (RBCs).
Peptides 4-8 and T riton X-100 (0.2% as positive control) were incubated with hum an RBCs at 37 °C and their viabilit y was assessed after 1 h. Data repres ented as m eans ± s.d. (n=3). *** for p < 0.001 was determ ined as a statis tically s ignificant difference between the c ell viabilities in PBS (phosphate buffer saline) and in T riton X-100.
as §1

[7] = conidia 5 × 10^5 cells/ml in 10% Vogel's medium, 24 h at 37 °C, OD610 nm, four parameter logistic regression, means±s.e.m., n=3, read-out: IC50 in Aspergillus fumigatus

Compound	cell viability, Escherichia coli [2] [%]	cell viability, Pseudomonas aeruginosa [3] [%]	cell viability, Klebsiella pneumoniae [4] [%]	IC50 [1, 7] [nM]	other results
CC1=CC(C)=[N+]2C1=C(c1cccc(-c3[nH]c4ccccc4c3C[C@H](NC(=O)[C@H](C)NC(=O)[C@H](C)NC(=O)[C@H](C)N)C(=O)N[C@@H](Cc3ccccc3)C(=O)N[C@@H](Cc3c[nH]c4ccccc34)C(N)=O)c1)c1c(C)cc(C)n1[B-]2(F)F [5a] (H-AAA[X1]FW-NH2)					activity / affinity in A. fumigatus, in words [1]: poor activity
CC1=CC(C)=[N+]2C1=C(c1cccc(-c3[nH]c4ccccc4c3C[C@H](NC(=O)[C@H](CCCCN)NC(=O)[C@H](CCCCN)NC(=O)[C@@H](N)CCCNC(=N)N)C(=O)N[C@@H](C)C(=O)N[C@@H](C)C(N)=O)c1)c1c(C)cc(C)n1[B-]2(F)F [5b] (H-RKK[X1]AA-NH2)					activity / affinity in A. fumigatus, in words [1]: reduced activity
CC1=CC(C)=[N+]2C1=C(c1cccc(-c3[nH]c4ccccc4c3C[C@H](NC(=O)[C@H](CCCCN)NC(=O)[C@H](CCCCN)NC(=O)[C@@H](N)CCCNC(=N)N)C(=O)N[C@@H](Cc3ccccc3)C(=O)N[C@@H](Cc3c[nH]c4ccccc34)C(N)=O)c1)c1c(C)cc(C)n1[B-]2(F)F [compound 5] (H-RKK[X1]FW-NH2)	94	> 99	87	3600 ± 100	remaining at 1 h, 20 μM ([5]; peptide 20 μM): 49%; remaining at 3 h, 20 μM ([5]; peptide 20 μM): 2%; remaining at 24 h, 20 μM ([5]; peptide 20 μM): < 1%; half-life at 20 μM ([5]; peptide 20 μM, HPLC-UV): < 1 h
CC1=CC(C)=[N+]2C1=C(c1cccc(-c3[nH]c4ccccc4c3C[C@H](NC(=O)[C@H](Cc3ccccc3)NC(=O)[C@H](Cc3c[nH]c4ccccc34)NC(=O)[C@H](CCCCN)NC(=O)[C@H](CCCCN)NC(=O)[C@@H](N)CCCNC(=N)N)C(N)=O)c1)c1c(C)cc(C)n1[B-]2(F)F [compound 6] (H-RKKWF[X1]-NH2)	95	> 99	96	3000 ± 100	
CC1=CC(C)=[N+]2C1=C(c1cccc(-c3[nH]c4ccccc4c3C[C@H](NC(=O)[C@H](Cc3ccccc3)NC(=O)[C@H](Cc3c(-c4cccc(C5=C6C(C)=CC(C)=[N+]6[B-](F)(F)n6c(C)cc(C)c65)c4)[nH]c4ccccc34)NC(=O)[C@H](CCCCN)NC(=O)[C@H](CCCCN)NC(=O)[C@@H](N)CCCNC(=N)N)C(N)=O)c1)c1c(C)cc(C)n1[B-]2(F)F [compound 7]	95	> 99	93	2500 ± 100	
CC1=CC(C)=[N+]2C1=C(c1cccc(-c3[nH]c4ccccc4c3C[C@@H]3NC(=O)[C@H](CCCCN)NC(=O)[C@H](CCCCN)NC(=O)[C@H](CCCNC(=N)N)NC(=O)CNC(=O)[C@H](Cc4c[nH]c5ccccc45)NC(=O)[C@H](Cc4ccccc4)NC3=O)c1)c1c(C)cc(C)n1[B-]2(F)F [compound 8] (cyclo(FWGRKK[X1]))	96	> 99	94	2000 ± 100	stability in human bronchoalveolar lavages, in words ([5]; after 24 h, 20 μM, HPLC-UV): remained intact; remaining at 1 h, 20 μM ([5]; peptide 20 μM): 99%; remaining at 3 h, 20 μM ([5]; peptide 20 μM): 99%; remaining at 24 h, 20 μM ([5]; peptide 20 μM): 95%; quantum yield in phospholipid membranes: 30%; cytotoxicity in human lung A549 epithelial cells, in words [6]: No significant differences; also recorded: no cytotoxicity; affinity for fungal cells compared with peptide 5 ([1]; comparison of IC50 values in A. fumigatus): around two-fold enhanced affinity
RKKWFW-NH2 [compound 4, reference compound]	> 99	> 99	93		cell viability, human RBCs (haemolysis) (human RBCs): 99%; IC50 ([1]; strain CEA10, 24 h): 7900 ± 200 nM
